Results from US7332317B2, “Phosphodiesterase and genes thereof” (Tanabe Seiyaku Co., Ltd., priority 1999, dated 2008).
“And” between values parts separate entries of the source, which are not always exact repeats. Equal values may be shown once. Read-outs that look alike come from different tables or passages of the source.

Key:
human PDE11A2 [1] = molecular target: T1, human PDE11A2 (Homo sapiens, UniProt Q9HCR9, DUP921-921); test: Inhibition of human PDE11A2 activity by known PDE inhibitors (radio-labeled nucleotide method)
human PDE11A1 [2] = molecular target: T2, human PDE11A1 (Homo sapiens, UniProt Q9HCR9, DUP921-921/R184Q); test: Inhibition of human PDE11A1 activity by known PDE inhibitors (radio-labeled nucleotide method)
human PDE11A2 [3] = molecular target: T1, human PDE11A2; test: Kinetic analysis of cAMP/cGMP hydrolysis by human PDE11A2 (Lineweaver-Burk plot); type: biochemical; set-up: inserted into a BamHI-XhoI site of an expression vector, pHis, to obtain a vector plasmid pHis-PDE11T for PDE11A2 expression; made in house; host or cells: COS-7 cells; details: labelled substance as substrate, 0.1 to 10 μM
human PDE11 = test: Influence of cGMP on cAMP hydrolysis activity and of cAMP on cGMP hydrolysis activity; type: biochemical; details: 3.5 μM unlabeled cAMP; 0.01-100 μM cGMP added; PDE11A1 and PDE11A2, FIG. 3
human PDE11A1 [4] = molecular target: T2, human PDE11A1; test: Kinetic analysis of cAMP/cGMP hydrolysis by human PDE11A1 (Lineweaver-Burk plot); type: biochemical; set-up: inserted into a BamHI-XhoI site of an expression vector, pcDNA4/HisMaxC; made in house; host or cells: COS-7 cells; details: labelled substance as substrate, 0.1 to 10 μM
[5] = read-out: IC50 value for human PDE11A2 activity, effect on cGMP hydrolysis activity, substrate 1.3 μM unlabeled cGMP, inhibitor 0-100 μM, recombinant enzyme from COS-7 cells
[6] = read-out: IC50 value for human PDE11A1 activity, effect on cGMP hydrolysis activity, substrate 1.3 μM unlabeled cGMP, inhibitor 0-100 μM, recombinant enzyme from COS-7 cells

T1 sequence (Q9HCR9 with tags, fused parts or gaps isoform Q9HCR9-2 DUP671-671): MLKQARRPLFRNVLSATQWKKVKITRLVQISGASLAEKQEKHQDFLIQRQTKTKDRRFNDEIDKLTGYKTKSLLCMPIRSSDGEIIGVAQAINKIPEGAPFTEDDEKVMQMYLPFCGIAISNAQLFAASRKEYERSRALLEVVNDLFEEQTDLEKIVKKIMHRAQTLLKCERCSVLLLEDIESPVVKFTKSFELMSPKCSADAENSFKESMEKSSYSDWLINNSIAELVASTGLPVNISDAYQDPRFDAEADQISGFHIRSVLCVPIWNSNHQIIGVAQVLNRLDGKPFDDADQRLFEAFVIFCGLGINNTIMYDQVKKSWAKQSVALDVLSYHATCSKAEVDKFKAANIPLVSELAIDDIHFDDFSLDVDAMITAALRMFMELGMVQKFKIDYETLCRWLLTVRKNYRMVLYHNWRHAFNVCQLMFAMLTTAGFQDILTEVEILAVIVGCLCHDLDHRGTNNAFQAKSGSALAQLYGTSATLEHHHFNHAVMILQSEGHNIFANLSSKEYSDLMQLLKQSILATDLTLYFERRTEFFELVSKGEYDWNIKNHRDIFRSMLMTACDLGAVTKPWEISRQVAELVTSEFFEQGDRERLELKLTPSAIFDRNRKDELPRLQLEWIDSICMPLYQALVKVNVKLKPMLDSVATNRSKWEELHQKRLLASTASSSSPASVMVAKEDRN
T2 sequence (Q9HCR9 with tags, fused parts or gaps R184Q/DUP921-921): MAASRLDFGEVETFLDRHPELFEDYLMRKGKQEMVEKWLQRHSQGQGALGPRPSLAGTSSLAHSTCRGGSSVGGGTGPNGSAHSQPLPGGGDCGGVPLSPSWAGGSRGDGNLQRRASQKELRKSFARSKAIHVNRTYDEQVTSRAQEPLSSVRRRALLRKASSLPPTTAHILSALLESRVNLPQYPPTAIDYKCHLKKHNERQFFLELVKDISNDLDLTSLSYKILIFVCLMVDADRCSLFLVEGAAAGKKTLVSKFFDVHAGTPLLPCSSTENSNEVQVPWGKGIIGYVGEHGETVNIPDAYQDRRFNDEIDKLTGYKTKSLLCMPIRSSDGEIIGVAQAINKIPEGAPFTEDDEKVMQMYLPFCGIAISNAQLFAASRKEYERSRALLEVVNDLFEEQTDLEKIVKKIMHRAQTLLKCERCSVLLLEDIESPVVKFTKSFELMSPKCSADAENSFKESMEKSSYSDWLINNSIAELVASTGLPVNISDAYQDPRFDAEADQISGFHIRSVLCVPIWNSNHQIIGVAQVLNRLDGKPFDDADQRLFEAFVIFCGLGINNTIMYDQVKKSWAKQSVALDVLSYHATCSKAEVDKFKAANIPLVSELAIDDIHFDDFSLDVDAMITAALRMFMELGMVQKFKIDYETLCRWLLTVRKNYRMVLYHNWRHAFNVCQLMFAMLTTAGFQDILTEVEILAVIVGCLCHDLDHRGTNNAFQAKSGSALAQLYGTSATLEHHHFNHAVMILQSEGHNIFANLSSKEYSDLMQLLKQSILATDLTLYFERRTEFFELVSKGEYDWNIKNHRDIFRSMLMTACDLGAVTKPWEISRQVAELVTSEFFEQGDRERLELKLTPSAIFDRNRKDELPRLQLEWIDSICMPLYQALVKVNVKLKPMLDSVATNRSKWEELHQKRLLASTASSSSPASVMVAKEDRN

SMILES	IC50 (human PDE11A2 [1])	IC50 (human PDE11A1 [2])	IC50 (human PDE11A1 [2]; [6])	further results
CC(C)Cn1c(=O)n(C)c(=O)c2[nH]cnc21 [IBMX, 3-isobutyl-1-methylxanthine]	30 µM and 38 µM	65 µM and 81 µM		
Cc1[nH]c(=O)c(C#N)cc1-c1ccncc1 [Milrinone]	> 100 µM	> 100 µM	> 100 µM	IC50 (human PDE11A2 [1]; [5]): > 100 µM
COc1ccc(C2CNC(=O)C2)cc1OC1CCCC1 (centres unmarked) [Rolipram]	> 100 µM	> 100 µM	> 100 µM	IC50 (human PDE11A2 [1]; [5]): > 100 µM
CCOC(=O)C1=C[C@]2(CC)CCCN3CCc4c(n1c1ccccc41)[C@@H]32 [Vinpocetine]	49 µM and 68 µM	> 100 µM	> 100 µM	
Nc1ncnc2c1ncn2[C@@H]1O[C@@H]2COP(=O)(O)O[C@H]2[C@H]1O [cAMP]				Vmax of human PDE11A2 (human PDE11A2 [3]): 9.63±1.88 pmol/min/μg protein
Nc1nc2c(ncn2[C@@H]2O[C@@H]3COP(=O)(O)O[C@H]3[C@H]2O)c(=O)[nH]1 [cGMP]				cAMP hydrolysis activity (relative value %) on addition of cGMP (human PDE11): lowered depending on a concentration of cGMP added; Km (human PDE11A1 [4]): 1.43 ± 0.109 µM; Vmax of human PDE11A1 (human PDE11A1 [4]): 121±8.08 pmol/min/μg of protein; Km (human PDE11A2 [3]): 1.47 ± 0.115 µM; Vmax of human PDE11A2 (human PDE11A2 [3]): 4.02±0.214 pmol/min/μg protein

More lines, main results first:

IC50 (human PDE11A2 [1])	IC50 (human PDE11A1 [2])	IC50 (human PDE11A1 [2]; [6])	SMILES	further results
11 µM and 8.6 µM	22 µM and 25 µM		CN1C(=O)c2[nH]c(Cc3ccc(C(F)(F)F)cc3)nc2N2C1=N[C@@H]1CCC[C@@H]12 (single isomer, unassigned) [SCH51866, (+)-cis-5-methyl-2-[4-(trifluoromethyl)benzyl]-3,4,5,6a,7,8,9,9a-octahydrocyclopent[4,5]imidazo-[2,1-b]purin-4-one]	
0.88 µM and 0.66 µM	1.8 ± 0.33 µM		O=C(O)C1CCN(c2nc(NCc3ccc4c(c3)OCO4)c3cc(Cl)ccc3n2)CC1 [E4021, sodium 1-[6-chloro-4-(3,4-methylenedioxybenzyl)aminoquinazolin-2-yl]pyperidine-4-carboxylate]	
